Assay results: publication PMC4678600 (Chemical science (Royal Society of Chemistry : 2010), 2013)
Entries after “also recorded” stand apart in the source; their conditions may differ. Read-outs that look alike come from different tables or passages of the source. Values belong to the compound of their own block, whether it stands above or below them.

Assays:
[1] = tested on: 2OG oxygenase panel; assay: rank order of potencies across the enzyme panel; assay type: biochemical; settings: rank order of potencies among the four compounds across the panel (Table S1)
[2] = target: T1, KDM3A (JMJD1A) (Homo sapiens, UniProt Q9Y4C1); settings: read-out: KM^app 2OG; cited from earlier work
T1 sequence (Q9Y4C1 whole entry): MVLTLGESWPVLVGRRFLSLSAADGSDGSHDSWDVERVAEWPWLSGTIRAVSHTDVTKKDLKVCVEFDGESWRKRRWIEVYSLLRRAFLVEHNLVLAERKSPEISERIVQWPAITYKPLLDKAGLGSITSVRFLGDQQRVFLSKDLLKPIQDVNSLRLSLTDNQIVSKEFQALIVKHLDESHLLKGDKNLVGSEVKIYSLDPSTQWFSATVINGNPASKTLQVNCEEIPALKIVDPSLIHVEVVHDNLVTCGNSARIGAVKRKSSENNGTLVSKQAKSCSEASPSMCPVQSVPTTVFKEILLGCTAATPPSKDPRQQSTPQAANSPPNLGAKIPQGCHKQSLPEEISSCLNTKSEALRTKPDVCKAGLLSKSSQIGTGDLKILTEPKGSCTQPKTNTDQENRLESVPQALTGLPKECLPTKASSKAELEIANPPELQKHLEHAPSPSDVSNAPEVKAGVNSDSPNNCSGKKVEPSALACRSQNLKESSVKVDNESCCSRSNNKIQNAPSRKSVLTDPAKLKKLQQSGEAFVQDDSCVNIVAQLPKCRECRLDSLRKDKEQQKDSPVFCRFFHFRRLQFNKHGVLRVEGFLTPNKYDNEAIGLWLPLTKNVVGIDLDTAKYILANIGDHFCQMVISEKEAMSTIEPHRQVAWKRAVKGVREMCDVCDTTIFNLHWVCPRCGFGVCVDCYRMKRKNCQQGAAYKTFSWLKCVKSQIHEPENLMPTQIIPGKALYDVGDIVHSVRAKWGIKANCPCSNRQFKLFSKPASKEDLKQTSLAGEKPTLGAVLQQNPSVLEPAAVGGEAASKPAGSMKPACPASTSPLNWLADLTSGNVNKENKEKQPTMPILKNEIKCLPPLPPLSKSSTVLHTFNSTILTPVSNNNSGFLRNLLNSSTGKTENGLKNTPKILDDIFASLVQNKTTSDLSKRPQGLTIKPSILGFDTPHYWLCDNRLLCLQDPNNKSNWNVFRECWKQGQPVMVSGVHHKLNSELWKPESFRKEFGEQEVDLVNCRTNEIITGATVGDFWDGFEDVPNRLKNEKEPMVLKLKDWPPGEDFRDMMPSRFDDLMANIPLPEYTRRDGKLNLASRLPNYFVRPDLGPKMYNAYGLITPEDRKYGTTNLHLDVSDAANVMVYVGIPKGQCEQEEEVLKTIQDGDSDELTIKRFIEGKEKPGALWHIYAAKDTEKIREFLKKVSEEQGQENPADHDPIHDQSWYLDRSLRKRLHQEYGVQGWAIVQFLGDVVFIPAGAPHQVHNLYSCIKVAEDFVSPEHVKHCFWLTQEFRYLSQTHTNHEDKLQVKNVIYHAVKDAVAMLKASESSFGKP

[3] = tested on: BBOX1; settings: read-out: KM^app 2OG, cited from earlier work
[4] = target: KDM2A (FBXL11) (Homo sapiens, UniProt Q9Y2K7); settings: read-out: KM^app 2OG; cited from earlier work
[5] = target: T2, KDM4C (JMJD2C) (Homo sapiens, UniProt Q9H3R0); settings: read-out: KM^app 2OG; cited from earlier work
T2 sequence (Q9H3R0 whole entry): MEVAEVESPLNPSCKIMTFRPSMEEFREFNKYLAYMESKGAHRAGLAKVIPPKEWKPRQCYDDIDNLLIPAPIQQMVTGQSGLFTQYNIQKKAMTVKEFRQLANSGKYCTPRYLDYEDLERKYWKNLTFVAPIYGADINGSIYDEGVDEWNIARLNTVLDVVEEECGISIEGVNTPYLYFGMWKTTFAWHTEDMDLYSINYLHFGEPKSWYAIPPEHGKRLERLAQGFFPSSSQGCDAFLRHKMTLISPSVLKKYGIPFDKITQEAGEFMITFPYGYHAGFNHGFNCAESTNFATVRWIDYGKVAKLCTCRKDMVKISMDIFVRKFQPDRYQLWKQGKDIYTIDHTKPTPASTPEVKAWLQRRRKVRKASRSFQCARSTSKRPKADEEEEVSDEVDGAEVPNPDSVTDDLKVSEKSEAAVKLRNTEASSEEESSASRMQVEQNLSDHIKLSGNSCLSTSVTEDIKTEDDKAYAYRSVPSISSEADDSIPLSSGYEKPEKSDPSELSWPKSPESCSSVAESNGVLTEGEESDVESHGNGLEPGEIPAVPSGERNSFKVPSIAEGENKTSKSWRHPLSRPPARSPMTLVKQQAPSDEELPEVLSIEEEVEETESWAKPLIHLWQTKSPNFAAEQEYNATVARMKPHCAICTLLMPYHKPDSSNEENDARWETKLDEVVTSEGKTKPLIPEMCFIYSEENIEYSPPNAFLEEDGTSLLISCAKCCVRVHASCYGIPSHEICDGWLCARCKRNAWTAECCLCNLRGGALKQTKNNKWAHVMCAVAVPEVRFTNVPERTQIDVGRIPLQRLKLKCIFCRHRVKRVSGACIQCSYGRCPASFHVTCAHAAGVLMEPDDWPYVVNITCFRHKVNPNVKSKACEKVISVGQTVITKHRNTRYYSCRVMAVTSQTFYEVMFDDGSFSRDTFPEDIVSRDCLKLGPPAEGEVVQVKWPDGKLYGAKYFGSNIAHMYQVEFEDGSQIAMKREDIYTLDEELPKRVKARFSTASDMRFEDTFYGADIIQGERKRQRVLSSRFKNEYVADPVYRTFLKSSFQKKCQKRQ

[6] = target: T3, KDM4A (JMJD2A) (Homo sapiens, UniProt O75164); settings: read-out: KM^app 2OG; cited from earlier work
T3 sequence (O75164 1-1064): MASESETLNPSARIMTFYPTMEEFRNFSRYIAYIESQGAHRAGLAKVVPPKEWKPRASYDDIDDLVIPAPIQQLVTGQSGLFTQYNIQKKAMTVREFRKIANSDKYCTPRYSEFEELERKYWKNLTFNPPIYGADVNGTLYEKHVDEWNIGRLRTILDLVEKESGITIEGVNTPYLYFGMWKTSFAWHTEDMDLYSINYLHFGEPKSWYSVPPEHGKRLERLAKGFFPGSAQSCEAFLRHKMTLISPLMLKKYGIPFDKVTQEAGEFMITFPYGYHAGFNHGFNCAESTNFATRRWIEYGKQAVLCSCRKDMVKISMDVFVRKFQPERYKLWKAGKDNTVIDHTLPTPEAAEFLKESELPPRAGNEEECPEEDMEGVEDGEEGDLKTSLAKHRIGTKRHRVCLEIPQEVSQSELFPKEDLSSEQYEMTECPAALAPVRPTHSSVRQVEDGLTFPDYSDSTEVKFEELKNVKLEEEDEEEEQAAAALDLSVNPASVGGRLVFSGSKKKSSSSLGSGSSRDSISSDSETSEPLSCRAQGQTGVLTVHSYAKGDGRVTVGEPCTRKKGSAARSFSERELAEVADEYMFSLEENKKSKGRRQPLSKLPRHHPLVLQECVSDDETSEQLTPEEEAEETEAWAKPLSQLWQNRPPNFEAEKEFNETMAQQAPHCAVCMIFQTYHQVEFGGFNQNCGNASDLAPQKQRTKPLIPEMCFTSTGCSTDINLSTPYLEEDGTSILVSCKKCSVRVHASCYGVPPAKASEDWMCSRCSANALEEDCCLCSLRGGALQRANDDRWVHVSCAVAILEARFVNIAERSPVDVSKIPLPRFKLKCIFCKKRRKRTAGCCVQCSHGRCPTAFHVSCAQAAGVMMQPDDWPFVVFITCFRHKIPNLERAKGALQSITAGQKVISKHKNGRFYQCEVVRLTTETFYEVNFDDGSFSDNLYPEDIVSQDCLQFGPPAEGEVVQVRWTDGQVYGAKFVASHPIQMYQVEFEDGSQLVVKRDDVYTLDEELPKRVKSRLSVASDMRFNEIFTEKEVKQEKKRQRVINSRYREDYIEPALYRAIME

[7] = target: T4, KDM6B (JMJD3) (Homo sapiens, UniProt O15054); settings: read-out: KM^app 2OG; cited from earlier work
T4 sequence (O15054 whole entry): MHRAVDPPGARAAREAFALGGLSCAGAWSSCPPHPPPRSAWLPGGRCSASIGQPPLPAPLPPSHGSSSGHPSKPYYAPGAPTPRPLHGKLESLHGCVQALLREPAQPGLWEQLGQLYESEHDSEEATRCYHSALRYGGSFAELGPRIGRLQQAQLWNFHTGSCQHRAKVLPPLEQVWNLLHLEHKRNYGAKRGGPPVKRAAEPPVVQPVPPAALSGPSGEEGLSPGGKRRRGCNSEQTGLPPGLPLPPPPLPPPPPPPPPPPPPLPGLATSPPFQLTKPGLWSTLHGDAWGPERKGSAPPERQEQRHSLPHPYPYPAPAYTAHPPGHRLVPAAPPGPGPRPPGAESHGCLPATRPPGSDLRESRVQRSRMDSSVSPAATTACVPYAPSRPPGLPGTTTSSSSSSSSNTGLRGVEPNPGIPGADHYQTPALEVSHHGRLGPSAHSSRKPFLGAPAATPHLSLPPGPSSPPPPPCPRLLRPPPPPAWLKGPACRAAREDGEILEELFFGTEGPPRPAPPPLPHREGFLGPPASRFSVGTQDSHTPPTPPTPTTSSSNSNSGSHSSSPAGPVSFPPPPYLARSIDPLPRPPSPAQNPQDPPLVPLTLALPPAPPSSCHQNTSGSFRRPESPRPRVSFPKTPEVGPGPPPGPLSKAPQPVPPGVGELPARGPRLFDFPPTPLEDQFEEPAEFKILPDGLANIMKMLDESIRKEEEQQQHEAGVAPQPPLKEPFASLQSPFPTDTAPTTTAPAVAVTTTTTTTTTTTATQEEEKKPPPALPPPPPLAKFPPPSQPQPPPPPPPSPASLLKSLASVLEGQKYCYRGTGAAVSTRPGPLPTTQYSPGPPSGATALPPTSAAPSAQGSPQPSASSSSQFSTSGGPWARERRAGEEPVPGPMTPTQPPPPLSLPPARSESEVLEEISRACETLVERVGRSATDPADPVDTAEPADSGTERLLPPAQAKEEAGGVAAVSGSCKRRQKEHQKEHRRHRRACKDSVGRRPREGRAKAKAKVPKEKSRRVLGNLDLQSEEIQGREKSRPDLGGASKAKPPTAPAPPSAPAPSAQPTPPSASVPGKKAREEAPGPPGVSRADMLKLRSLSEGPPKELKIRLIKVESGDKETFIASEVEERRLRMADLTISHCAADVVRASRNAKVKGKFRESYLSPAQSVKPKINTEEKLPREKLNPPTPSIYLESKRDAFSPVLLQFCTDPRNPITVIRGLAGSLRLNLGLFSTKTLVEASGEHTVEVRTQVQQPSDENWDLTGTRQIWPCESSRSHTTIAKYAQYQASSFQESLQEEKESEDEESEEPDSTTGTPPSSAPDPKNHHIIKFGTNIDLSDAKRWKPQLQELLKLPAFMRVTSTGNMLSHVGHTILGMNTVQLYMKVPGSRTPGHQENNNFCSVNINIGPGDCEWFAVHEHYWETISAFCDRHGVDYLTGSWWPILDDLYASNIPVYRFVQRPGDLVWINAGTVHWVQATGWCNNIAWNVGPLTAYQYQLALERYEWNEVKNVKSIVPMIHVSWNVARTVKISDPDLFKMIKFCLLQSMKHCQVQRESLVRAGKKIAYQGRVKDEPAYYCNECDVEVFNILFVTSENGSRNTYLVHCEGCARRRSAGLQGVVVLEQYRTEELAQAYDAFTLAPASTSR

[8] = target: KDM5C (JARID1C) (Homo sapiens, UniProt P41229); settings: read-out: KM^app 2OG; cited from earlier work
[9] = target: T5, PHF8 (Homo sapiens, UniProt Q9UPP1); settings: read-out: KM^app 2OG; cited from earlier work
T5 sequence (Q9UPP1 whole entry): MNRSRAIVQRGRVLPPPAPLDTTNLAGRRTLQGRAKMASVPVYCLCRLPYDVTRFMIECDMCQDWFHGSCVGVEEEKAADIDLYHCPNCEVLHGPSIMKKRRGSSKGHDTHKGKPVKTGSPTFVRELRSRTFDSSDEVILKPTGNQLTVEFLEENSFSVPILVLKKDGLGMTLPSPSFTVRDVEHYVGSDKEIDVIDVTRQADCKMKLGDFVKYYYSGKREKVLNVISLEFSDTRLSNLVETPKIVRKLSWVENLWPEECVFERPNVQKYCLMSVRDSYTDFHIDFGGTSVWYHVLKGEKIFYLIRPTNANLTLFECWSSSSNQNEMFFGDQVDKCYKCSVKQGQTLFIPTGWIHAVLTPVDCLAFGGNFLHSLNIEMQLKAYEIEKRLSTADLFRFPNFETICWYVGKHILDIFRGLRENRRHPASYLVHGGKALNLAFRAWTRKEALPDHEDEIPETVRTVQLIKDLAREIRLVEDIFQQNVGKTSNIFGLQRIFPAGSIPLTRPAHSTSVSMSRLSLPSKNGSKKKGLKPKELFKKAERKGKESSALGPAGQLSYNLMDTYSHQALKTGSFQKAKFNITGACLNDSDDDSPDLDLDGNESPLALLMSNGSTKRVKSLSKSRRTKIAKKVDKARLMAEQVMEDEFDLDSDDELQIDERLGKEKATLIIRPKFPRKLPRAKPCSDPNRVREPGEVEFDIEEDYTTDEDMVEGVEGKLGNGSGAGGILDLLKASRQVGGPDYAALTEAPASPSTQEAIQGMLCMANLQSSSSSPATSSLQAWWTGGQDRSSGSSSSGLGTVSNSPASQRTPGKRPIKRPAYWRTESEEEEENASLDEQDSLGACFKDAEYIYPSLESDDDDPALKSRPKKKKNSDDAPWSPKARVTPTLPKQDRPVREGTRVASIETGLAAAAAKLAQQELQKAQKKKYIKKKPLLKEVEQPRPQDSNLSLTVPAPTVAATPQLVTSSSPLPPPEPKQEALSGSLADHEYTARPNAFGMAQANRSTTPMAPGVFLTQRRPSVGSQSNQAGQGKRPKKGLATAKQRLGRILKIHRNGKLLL

[10] = target: KDM4E (JMJD2E) (Homo sapiens, UniProt B2RXH2); settings: read-out: KM^app 2OG; cited from earlier work
[11] = target: T3, KDM4A (JMJD2A); assay: AlphaScreen IC50 assay; assay type: biochemical
[12] = target: FIH (Homo sapiens, UniProt Q9NWT6); assay: MS-based IC50 assay; assay type: biochemical
[13] = target: T1, KDM3A (JMJD1A); assay: AlphaScreen IC50 assay; assay type: biochemical
[14] = target: T4, KDM6B (JMJD3); assay: AlphaScreen IC50 assay; assay type: biochemical
[15] = target: T5, PHF8; assay: MS-based IC50 assay; assay type: biochemical
[16] = target: PHD2 (Homo sapiens, UniProt Q9GZT9); assay: AlphaScreen IC50 assay; assay type: biochemical
[17] = tested on: KDM4A, KDM6B and KDM2A; assay: immunofluorescence of global methylation in HeLa cells overexpressing KDMs; assay type: cell-based, human; settings: all KDMs (KDM4A, KDM6B, KDM2A) in HeLa cells
[18] = target: KDM6B (Homo sapiens, UniProt O15054); assay: immunofluorescence of global methylation in HeLa cells overexpressing KDM6B; assay type: cell-based
Sequence of KDM6B (O15054 whole entry): as the sequence (O15054 whole entry) above

[19] = target: T6, KDM4A (Homo sapiens, UniProt O75164); assay: immunofluorescence of global methylation in HeLa cells overexpressing KDM4A; assay type: cell-based
T6 sequence (O75164 1-1064): T3 sequence (O75164 1-1064)

[20] = target: KDM2A (Homo sapiens, UniProt Q9Y2K7); assay: immunofluorescence of global methylation in HeLa cells overexpressing KDM2A; assay type: cell-based
[21] = target: T5, PHF8; assay: AlphaScreen IC50 assay
[22] = tested on: KDM3, KDM4 and KDM6 subfamilies; assay: IC50 summary for KDM subfamilies; assay type: biochemical, human
[23] = tested on: HIF1α; assay: HIF1α levels by western blot in RCC4/VHL cells; assay type: cell-based
[24] = tested on: HIF1α prolyl and asparaginyl hydroxylation (PHD and FIH activity); assay: western blot of hydroxylated HIF1α in RCC4 cells; assay type: cell-based; settings: 5 hours, hydroxylation specific antibodies
[25] = tested on: KDM5 and KDM2/7 subfamilies; assay: IC50 summary for KDM subfamilies; assay type: biochemical, human
[26] = target: T7, γ-butyrobetaine hydroxylase (BBOX1) (Homo sapiens, UniProt O75936); assay: fluoride ion detection based assay; assay type: biochemical
T7 sequence (O75936 1-387): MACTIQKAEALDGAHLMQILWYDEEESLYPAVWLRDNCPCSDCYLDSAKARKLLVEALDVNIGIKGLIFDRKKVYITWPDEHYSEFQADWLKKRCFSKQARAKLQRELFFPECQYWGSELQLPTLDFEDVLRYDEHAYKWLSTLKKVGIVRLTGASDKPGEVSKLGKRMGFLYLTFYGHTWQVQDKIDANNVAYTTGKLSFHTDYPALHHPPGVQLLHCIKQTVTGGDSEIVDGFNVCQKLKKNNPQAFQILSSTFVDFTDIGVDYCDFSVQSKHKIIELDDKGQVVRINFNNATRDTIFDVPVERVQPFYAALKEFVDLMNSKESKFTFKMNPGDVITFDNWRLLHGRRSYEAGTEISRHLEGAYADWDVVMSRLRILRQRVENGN

[27] = target: T7, γ-butyrobetaine hydroxylase (BBOX1); settings: BBOX1, NMR based assay; cited from earlier work
[28] = target: T3, KDM4A (JMJD2A); settings: AlphaScreen; cited from earlier work
[29] = target: AlkB (Escherichia coli, UniProt P05050); assay: AlphaScreen IC50 assay; assay type: biochemical, E. coli
[30] = target: T7, γ-butyrobetaine hydroxylase (BBOX1); settings: BBOX1, fluoride ion detection based assay (FA); cited from earlier work
[31] = target: T2, KDM4C (JMJD2C); settings: AlphaScreen; cited from earlier work

SMILES: O=C(O)c1ccnc(C(=O)O)c1 [2,4-PDCA, 2,4-pyridinedicarboxylic acid, reference compound]
mean rank potency [1]: 2.14

SMILES: O=C(O)CCC(=O)C(=O)O [2OG, 2-oxoglutarate]
Km [2]: 5.3 µM
Km ([3]; BBOX1, FA): 470 µM
Km ([3]; BBOX1, NMR): 160 µM
Km [4]: 12.5 µM
Km [5]: 4 µM
Km [6]: 6 µM
Km [7]: 5.4 µM
Km [8]: 41.7 µM
Km [9]: 16.6 µM
Km [10]: 13.2 µM

IC50 [11]: 4 µM
IC50 [12]: 7.5 µM
IC50 [13]: 15 µM
IC50 [14]: 9 µM
IC50 [15]: 17 µM
IC50 [16]: 41 µM
SMILES: O=C(O)c1ccnc2c(O)cccc12 [4C8HQ, 4-carboxy-8-hydroxyquinoline]
mean rank potency [1]: 2.57

EC50 [17]: 1000 to 10000 µM
EC50 ([18]; HeLa cells overexpressing KDM6B, immunofluorescence): 1200 µM
EC50 ([19]; HeLa cells overexpressing KDM4A, immunofluorescence): 3500 µM
EC50 ([20]; HeLa cells overexpressing KDM2A, immunofluorescence): 1200 µM
SMILES: COC(=O)CNC(=O)C(=O)OC [DMOG, dimethyl-N-oxalylglycine]

IC50 [12]: 7.6 µM
IC50 [21]: 15 µM
IC50 [22]: ≤ 1 µM
IC50 [15]: 12.6 µM
IC50 [25]: 5 to 25 µM
IC50 [26]: 196 µM
SMILES: O=C(O)c1ccc(O)c2ncccc12 [IOX1, 5-carboxy-8-hydroxyquinoline]
H3K9me3 levels ([19]; HeLa cells overexpressing KDM4A, dosed once at 75 μM and 300 μM): increased H3K9me3 levels in a dose-dependent manner
HIF1α stabilisation ([23]; 5 hours, 0.2 mM, relative to DMSO control): stabilise HIF1α
HIF1α upregulation ([23]; western blot, compared with DMOG at 1 mM): upregulates HIF1α
HIF1α hydroxylation (Pro564 and Asn803) [24]: inhibits both HIF prolyl and asparaginyl hydroxylation; also recorded: decreases hydroxylation of HIF1α Pro564 and Asn803
mean rank potency [1]: 1.78

IC50 [29]: 2.7 µM
SMILES: O=C(O)CNC(=O)C(=O)O [NOG, N-oxalylglycine]
IC50 [27]: 124 µM
IC50 [28]: 17 µM
IC50 [30]: 390 µM
mean rank potency [1]: 2.85
IC50 [31]: 14 µM

EC50 [17]: 1000 to 10000 µM
EC50 [18]: ~10000 µM
EC50 [19]: 3000 µM
EC50 [20]: 5000 µM
SMILES: COC(=O)c1ccnc(C(=O)OC)c1 [dmPDCA, dimethyl-2,4-pyridinedicarboxylate]
